Data from PubChem BioAssay (NCI).
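Cells were grown in 96-well plates and exposed to each compound for 48 hours at five concentrations; endpoints were interpolated linearly between bracketing concentrations, or set to the highest concentration if not reached. Here, GI50 denotes the concentration required for 50% inhibition of growth. The concentration for full growth arrest is given as TGI.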

How the values were obtained:
Test in all cases: NCI tumour cell line growth inhibition, 48 h
UACC-62 melanoma = system: UACC-62 melanoma
MCF7 breast = system: MCF7 breast
SK-MEL-2 melanoma = system: SK-MEL-2 melanoma
SF-268 CNS = system: SF-268 CNS
SN12C renal = system: SN12C renal
SR leukemia = system: SR leukemia
DU-145 prostate = system: DU-145 prostate
OVCAR-8 ovarian = system: OVCAR-8 ovarian
HS 578T breast = system: HS 578T breast
CCRF-CEM leukemia = system: CCRF-CEM leukemia
OVCAR-3 ovarian = system: OVCAR-3 ovarian
A498 renal = system: A498 renal
NCI-H23 lung = system: NCI-H23 lung
UO-31 renal = system: UO-31 renal
LOX IMVI melanoma = system: LOX IMVI melanoma
SF-539 CNS = system: SF-539 CNS
HCC-2998 colon = system: HCC-2998 colon
SNB-75 CNS = system: SNB-75 CNS
T-47D breast = system: T-47D breast
OVCAR-4 ovarian = system: OVCAR-4 ovarian
TK-10 renal = system: TK-10 renal
MOLT-4 leukemia = system: MOLT-4 leukemia
EKVX NSCLC = system: EKVX NSCLC
SK-OV-3 ovarian = system: SK-OV-3 ovarian
U251 CNS = system: U251 CNS
COLO 205 colon = system: COLO 205 colon
SF-295 CNS = system: SF-295 CNS
KM12 colon = system: KM12 colon
UACC-257 melanoma = system: UACC-257 melanoma
HOP-92 NSCLC = system: HOP-92 NSCLC
M14 melanoma = system: M14 melanoma
HOP-62 NSCLC = system: HOP-62 NSCLC
RXF 393 renal = system: RXF 393 renal
MDA-MB-435 = system: MDA-MB-435
SK-MEL-5 melanoma = system: SK-MEL-5 melanoma
SK-MEL-28 melanoma = system: SK-MEL-28 melanoma
CAKI-1 renal = system: CAKI-1 renal
PC-3 prostate = system: PC-3 prostate
HCT-15 colon = system: HCT-15 colon
IGROV1 ovarian = system: IGROV1 ovarian
NCI-H226 lung = system: NCI-H226 lung
786-0 renal = system: 786-0 renal
HL-60(TB) leukemia = system: HL-60(TB) leukemia
A549 NSCLC = system: A549 NSCLC
ACHN renal = system: ACHN renal
MALME-3M melanoma = system: MALME-3M melanoma
NCI/ADR-RES ovarian = system: NCI/ADR-RES ovarian
NCI-H522 lung = system: NCI-H522 lung
HCT-116 colon = system: HCT-116 colon
OVCAR-5 ovarian = system: OVCAR-5 ovarian
MDA-MB-231 breast = system: MDA-MB-231 breast
SW-620 colon = system: SW-620 colon
SNB-19 CNS = system: SNB-19 CNS
NCI-H460 lung = system: NCI-H460 lung
RPMI-8226 leukemia = system: RPMI-8226 leukemia
BT-549 breast = system: BT-549 breast
K-562 leukemia = system: K-562 leukemia

CCCCCCCCCCCC1=NC(C)(C)CN1C(C)C
GI50 (UACC-62 melanoma): 1750 nM | TGI (UACC-62 melanoma): 3.54 µM | GI50 (MCF7 breast): 2810 nM | TGI (MCF7 breast): 8.68 µM | GI50 (SK-MEL-2 melanoma): 3.2 µM | TGI (SK-MEL-2 melanoma): 10 µM | GI50 (SF-268 CNS): 5.51 µM | TGI (SF-268 CNS): 18.2 µM | GI50 (SN12C renal): 4.04 µM | TGI (SN12C renal): 16.7 µM | GI50 (SR leukemia): 1710 nM | TGI (SR leukemia): 4.32 µM | GI50 (DU-145 prostate): 5.46 µM | TGI (DU-145 prostate): 17.9 µM | GI50 (OVCAR-8 ovarian): 4.35 µM | TGI (OVCAR-8 ovarian): 16.3 µM | GI50 (HS 578T breast): 2810 nM | TGI (HS 578T breast): 13.1 µM | GI50 (CCRF-CEM leukemia): 2700 nM | TGI (CCRF-CEM leukemia): 10.1 µM | GI50 (OVCAR-3 ovarian): 1940 nM | TGI (OVCAR-3 ovarian): 6.14 µM | GI50 (A498 renal): 4.78 µM | TGI (A498 renal): 19.3 µM | GI50 (NCI-H23 lung): 2980 nM | TGI (NCI-H23 lung): 11.3 µM | GI50 (UO-31 renal): 2750 nM | TGI (UO-31 renal): 12.5 µM | GI50 (LOX IMVI melanoma): 2320 nM | TGI (LOX IMVI melanoma): 6.85 µM | GI50 (SF-539 CNS): 2140 nM | TGI (SF-539 CNS): 4.41 µM | GI50 (HCC-2998 colon): 1710 nM | TGI (HCC-2998 colon): 3.27 µM | GI50 (SNB-75 CNS): 6.04 µM | TGI (SNB-75 CNS): 19.2 µM | GI50 (T-47D breast): 2900 nM | TGI (T-47D breast): 8.73 µM | GI50 (OVCAR-4 ovarian): 4.29 µM | TGI (OVCAR-4 ovarian): 15.9 µM | GI50 (TK-10 renal): 4.02 µM | TGI (TK-10 renal): 16.1 µM | GI50 (MOLT-4 leukemia): 2670 nM | TGI (MOLT-4 leukemia): 7.44 µM | GI50 (EKVX NSCLC): 6.55 µM | TGI (EKVX NSCLC): 21.1 µM | GI50 (SK-OV-3 ovarian): 7.51 µM | TGI (SK-OV-3 ovarian): 20 µM | GI50 (U251 CNS): 3.4 µM | TGI (U251 CNS): 12.8 µM | GI50 (COLO 205 colon): 1770 nM | TGI (COLO 205 colon): 3.15 µM | GI50 (SF-295 CNS): 3.05 µM | TGI (SF-295 CNS): 10.7 µM | GI50 (KM12 colon): 1940 nM | TGI (KM12 colon): 3.96 µM | GI50 (UACC-257 melanoma): 2490 nM | TGI (UACC-257 melanoma): 6.02 µM | GI50 (HOP-92 NSCLC): 1190 nM | TGI (HOP-92 NSCLC): 5.17 µM | GI50 (M14 melanoma): 1890 nM | TGI (M14 melanoma): 3.57 µM | GI50 (HOP-62 NSCLC): 4.35 µM | TGI (HOP-62 NSCLC): 16.2 µM | GI50 (RXF 393 renal): 2170 nM | TGI (RXF 393 renal): 5.33 µM | GI50 (MDA-MB-435): 2000 nM | TGI (MDA-MB-435): 5.33 µM | GI50 (SK-MEL-5 melanoma): 2050 nM | TGI (SK-MEL-5 melanoma): 4.34 µM | GI50 (SK-MEL-28 melanoma): 1780 nM | TGI (SK-MEL-28 melanoma): 3.37 µM | GI50 (CAKI-1 renal): 2680 nM | TGI (CAKI-1 renal): 14 µM | GI50 (PC-3 prostate): 2120 nM | TGI (PC-3 prostate): 11.1 µM | GI50 (HCT-15 colon): 2630 nM | TGI (HCT-15 colon): 8.76 µM | GI50 (IGROV1 ovarian): 1640 nM | TGI (IGROV1 ovarian): 4.53 µM | GI50 (NCI-H226 lung): 6.16 µM | TGI (NCI-H226 lung): 22 µM | GI50 (786-0 renal): 3.57 µM | TGI (786-0 renal): 13 µM | GI50 (HL-60(TB) leukemia): 2140 nM | TGI (HL-60(TB) leukemia): 4.55 µM | GI50 (A549 NSCLC): 3.71 µM | TGI (A549 NSCLC): 14.6 µM | GI50 (ACHN renal): 4.15 µM | TGI (ACHN renal): 15.7 µM | GI50 (MALME-3M melanoma): 1920 nM | TGI (MALME-3M melanoma): 4.32 µM | GI50 (NCI/ADR-RES ovarian): 3.63 µM | TGI (NCI/ADR-RES ovarian): 13.4 µM | GI50 (NCI-H522 lung): 2650 nM | TGI (NCI-H522 lung): 10.8 µM | GI50 (HCT-116 colon): 2830 nM | TGI (HCT-116 colon): 10.4 µM | GI50 (OVCAR-5 ovarian): 4.14 µM | TGI (OVCAR-5 ovarian): 16.1 µM | GI50 (MDA-MB-231 breast): 3.67 µM | TGI (MDA-MB-231 breast): 14 µM | GI50 (SW-620 colon): 1850 nM | TGI (SW-620 colon): 3.87 µM | GI50 (SNB-19 CNS): 11.3 µM | TGI (SNB-19 CNS): 23.4 µM | GI50 (NCI-H460 lung): 3.22 µM | TGI (NCI-H460 lung): 9.28 µM | GI50 (RPMI-8226 leukemia): 1440 nM | TGI (RPMI-8226 leukemia): 3.66 µM | GI50 (BT-549 breast): 9.22 µM | TGI (BT-549 breast): 23.4 µM | GI50 (K-562 leukemia): 1940 nM | TGI (K-562 leukemia): 5.82 µM
